Measured values as given in patent publication US20080262228A1, “Metabolites of 5-fluoro-8- quinoline and methods of preparation and uses thereof” (Wyeth, priority 2006, published 2008).
Structures can show the parent of a compound that is named as a salt.

Columns and labels:
[1] = Metabolite profiling in liver microsomes and S9; type: in vitro ADME, rat, dog, monkey, human; conditions: liver microsomes and S9, 10 μM COMPOUND I, 30 min; species letters not defined
Experimental: Microsomal incubations for metabolite profiling were similar to those described above for intrinsic clearance determination (see Table 1). Aliquots of COMPOUND I (10 μL), dissolved in DMSO:methanol (1:9), were added to a 96-well plate containing phosphate buffer, and MgCl2 and the liver microsomes at 37° C. using the same automation apparatus as for the stability study described hereinabove. The reactions were initiated by the addition of the UDPGA and NADPH generating system. The final incubation volume for all samples was 1 mL and the length of incubation was 30 min. […] Three 250 μL aliquots were transferred to a 96-well plate containing 900 μL acetonitrile to precipitate the protein. […] The samples were then reconstituted in 150 μL of 20% methanol in water. The three aliquots for each sample were pooled and analyzed by LC/MS.
S9 incubation buffer and cofactors were chosen to allow N-acetylation and carbamoyl glucuronidation in addition to oxidative and glucuronidation pathways possible in liver microsomes. Incubations of sulfamethazine and SCA-136 with liver S9 were used as positive controls for N-acetylation and carbamoyl glucuronidation, respectively. Following a 30 min. incubation, 750 μL from each sample were added to 900 μL acetonitrile. Following centrifugation and evaporation of the supernatant, the samples were reconstituted in 450 μL of 20% methanol in water for analysis by HPLC/UV and LC/MS (see below).
The HPLC system used for mass spectrometric analysis was an Agilent 1100 HPLC (Agilent Technologies, Palo Alto, Calif.) equipped with a binary pump and a diode array UV detector. The UV detector was set to monitor 190-400 nm. Separations were accomplished on a Luna C18 column (150×2.1 mm, 5 μm) (Phenomenex Incorporated, Torrance, Calif.).
The mass spectrometer used for metabolite characterization was a Finnigan LCQ Deca ion trap mass spectrometer (Thermo Electron Corp.). […] Full scan and data dependent MS2 and MS3 mass spectra were recorded. Finnigan Xcalibur software (version 1.3) was used for control of equipment and recording of data from UV and LC/MS analyses.
Chromatographic profiles of COMPOUND I (10 μM) metabolites in incubations with liver microsomes in the presence of NADPH are presented in FIG. 1. Chromatographic profiles of COMPOUND I (10 μM) metabolites in incubations with liver microsomes in the presence of NADPH and UDPGA are presented in FIG. 2. Chromatographic profiles of COMPOUND I (10 μM) metabolites in incubations with liver S9 in the presence of NADPH, UDPGA and acetyl coenzyme A (CoA) are presented in FIG. 3. In incubations containing NADPH, UDPGA and acetyl CoA, fourteen Phase I metabolites (M1, M6, M8, M12, M13, M14, M15, M16, M17, M18, M20, M21, M22 and M23) and six Phase II metabolites (M2, M3, M5, M7, M9 and M10) were observed. In incubations without cofactors, no metabolites were observed.
LC/MS analysis was conducted on extracts of mouse, rat, monkey and human liver microsomes and S9. The mass spectral data for the characterized COMPOUND I metabolites are discussed below.

[2] = In vivo metabolism and excretion of [14C]COMPOUND I in male beagle dogs, single oral 3 mg/kg dose; set-up: species or system dog; conditions: 3 mg/kg oral
Experimental: Dose preparation, animal dosing, and specimen collection were performed at Wyeth Research, Collegeville, Pa. The vehicle contained 2% (w/v) polysorbate 80, NF and 0.5% (w/v) methylcellulose (4000 cps) in water. [^14C]COMPOUND I trisuccinate salt (50.25 mg) and non-labeled COMPOUND I trisuccinate salt (331.9 mg) were suspended in 72 mL of the vehicle by grinding with a mortar and a pestle. The target [^14C]COMPOUND I concentration was approximately 3 mg/mL as free base and 48 μCi/mL with a target specific activity of 16 μCi/mg. Three pre- and post-dose aliquots (100 μL) were taken for the determination of radiochemical purity, drug and radioactivity concentrations and specific activity (see below).
Four male beagle dogs, weighing from 9.4 to 11.5 kg at the time of dosing, were from an in-house colony. Non-fasted dogs were given a single 3 mg/kg (approximately 48 μCi/kg) dose of [^14C]COMPOUND I at a volume of 1 mL/kg via intragastric gavage. Animals were provided Purina dog chow and water ad libitum, and were housed individually in metabolic cages.
Blood samples were collected from the jugular vein at 1, 4, 8, 24, 48, 72 and 120 hr after dose administration into tubes containing potassium EDTA as the anticoagulant and then placed on ice. Aliquots of 200 μL were removed and plasma was harvested immediately from the remaining blood by centrifugation at 4° C. Urine samples were collected into tubes on dry ice from 0-24 and 24-48 hr, and then at ambient temperature at 24 hr intervals for 7 days post-dose. Fecal samples were collected at 24 hr intervals for 7 days post-dose at room temperature. Cage rinses were collected daily by rinsing each cage with approximately 500 mL of 30% ethanol in water. The dose aliquots and biological specimens were stored at approximately −70° C. until analysis.
Triplicate aliquots of diluted dose (20 μL), dose fractions (10 μL) and plasma (50 μL), urine (200 μL) and cage wash (500 μL) from individual dogs were analyzed for radioactivity content. The samples were assayed in a Tri-Carb Model 3100TR liquid scintillation counter (Perkin Elmer) using 5 mL of Ultima Gold scintillation cocktail.
Fecal samples from individual dogs were weighed and homogenized in water at a volume-to-weight ratio of about 4:1 with a Silverson sealed-unit homogenizer at ambient temperature. Triplicate aliquots of whole blood (50 μL) and fecal homogenates (approximately 0.2 g) were placed into Combusto-cones with Combusto-pads and allowed to dry overnight. Samples were combusted with a model 307 Tri-Carb Sample Oxidizer, equipped with an Oximate-80 Robotic Automatic Sampler (Perkin Elmer). The liberated ^14CO2 was trapped with Carbo-Sorb® E carbon dioxide absorber, mixed with PermaFluor® E+liquid scintillation cocktail, and counted in a Tri-Carb Model 3100 TR/LL liquid scintillation counter.
Plasma samples were pooled by mixing equal volumes from four animals at each time point (1, 4, 8 and 24 hr). Aliquots of 2.0 mL of pooled plasma were mixed with 2.0 mL of acetonitrile, placed on ice for about 10 min, and then centrifuged at 4° C. The supernatant was transferred to a clean tube. The protein pellets were extracted two more times with 2.0 mL of acetonitrile. The supernatants from precipitation and extraction of each sample were pooled, mixed, and evaporated at 22° C. under nitrogen in a TurboVap LV evaporator (Caliper Life Sciences, Hopkinton, Mass.) to about 0.8 mL. The concentrated extract was centrifuged, the supernatant volume measured and the extraction efficiency was determined by analyzing duplicate 10 μL aliquots for radioactivity concentrations. For metabolite profiling, an aliquot of the supernatant (200 μL) was injected onto the HPLC column as described hereinbelow, and fractions were collected at 20 second intervals into 96-well Lumaplates (Perkin Elmer).

[3] = Turnover to metabolites in cryopreserved hepatocytes; conditions: 100 μM, 1 hr
Experimental: Chromatographic analyses were performed with a Waters Alliance model 2695 HPLC system (Waters Corp., Milford, Mass.) that was equipped with a built-in autosampler. The column eluent was monitored with a model 996 diode array UV detector, set to monitor 250 nm, and a FloOne β Model A525 radioactivity flow detector (Perkin Elmer) with a 250 μL flow cell. Separation of the parent compound from metabolites was accomplished using a Discovery C18 column, 250×4.6 mm, 5 μm (Supelco, Bellefonte, Pa.) at an ambient temperature of approximately 20° C. Mobile phase A was 10 mM ammonium acetate (pH 4.5) and mobile phase B was acetonitrile and they were delivered at 1 mL/min using the gradient described in Table 10. The Ultima Flo M scintillant flow rate was 3 mL/min.
Flo-One analytical software (version 3.65) was utilized to integrate the radioactive peaks. Means and standard deviations were calculated using Microsoft Excel® 2000. Micromass MassLynx software (version 4.0, Waters Corp.) was used for control of LC/MS equipment and recording of data from LC/MS analyses.

[4] = In vivo metabolism of [14C]COMPOUND I in Sprague-Dawley rats, single oral 5 mg/kg dose; set-up: species or system rat; conditions: for Chromatographic Distribution of Radioactivity in Pooled Plasma Samples: 5 mg/kg oral [14C]COMPOUND I
Experimental: Dose preparation, animal dosing, and specimen collection were performed at Wyeth Research, Collegeville, Pa. The vehicle contained 2% (w/v) polysorbate 80, NF and 0.5% (w/v) methylcellulose (4000 cps) in water. [^14C]COMPOUND I trisuccinate salt (36.6 mg) and non-labeled COMPOUND I trisuccinate salt (26.7 mg) were dissolved in 1 mL of ethanol and suspended in 35 mL of the vehicle with stirring. The target [^14C]COMPOUND I concentration was approximately 1 mg/mL as free base and 70 μCi/mL with a target specific activity of 70 μCi/mg. Three pre- and post-dose aliquots (100 μL) were taken for the determination of radiochemical purity, drug and radioactivity concentrations and specific activity (see below).
Male rats weighing from 323 to 354 g and female rats weighing from 270 to 317 g at the time of dosing were purchased from Charles River Laboratories (Wilmington, Mass.). Non-fasted rats were given a single 5 mg/kg (˜350 μCi/kg) dose of [^14C]COMPOUND I at a volume of 5.0 mL/kg via intragastric gavage. Three rats were dosed for each time point. Animals were provided Purina rat chow and water ad libitum, and were kept individually in metabolism cages.
Blood samples were collected at 1, 3, 6 and 24 hr from male rats and at 1 and 3 hr from female rats after dose administration by cardiac puncture into tubes containing EDTA as the anticoagulant and placing them on ice. Triplicate aliquots (50 μL) of whole blood were removed and plasma was immediately obtained from the remaining blood by centrifugation at 4° C. Whole brain samples were collected after saline perfusion at 1, 3, 6 and 24 hr post-dose from male rats and at 1 and 3 hr post-dose from female rats. Urine samples were collected on dry ice from male rats at intervals of 0-6 and 6-24 hr post-dose. Feces were collected from male rats at 0-24 hr post-dose at room temperature. The biological specimens and aliquots of the dose suspension were stored at approximately −70° C. until analysis.
Triplicate aliquots of diluted dose (20 μL), dose fractions (10 μL), and plasma (50 μL) and urine (100 μL) from individual rats were analyzed for radioactivity concentrations. Radioactivity determinations were made with a Tri-Carb Model 3100 TR liquid scintillation counter (LSC) (Perkin Elmer) using 5 mL of Ultima Gold as the scintillation fluid.
Brain and fecal samples from individual rats were weighed and homogenized in water at a volume-to-weight ratio of about 3:1 and 5:1, respectively, with a Polytron PT homogenizer at ice-cold temperature. Duplicate aliquots of blood (50 μL), brain homogenates (0.2 g) and fecal homogenates (0.2 g) were placed on Combusto-cones with Combusto-pads and allowed to dry overnight. Samples were combusted with a model 307 Tri-Carb Sample Oxidizer, equipped with an Oximate-80 Robotic Automatic Sampler (Perkin Elmer). The liberated ^14CO2 was trapped with Carbo-Sorb E carbon dioxide absorber, mixed with PermaFluor® E^+ liquid scintillation cocktail, and counted in a Tri-Carb Model 3100 TR/LL liquid scintillation counter (Perkin Elmer).
Plasma samples were pooled by equal volumes from three animals at each time point (1, 3, 6 and 24 hr for males; 1 and 3 hr for females). Aliquots of 2 mL of pooled plasma were mixed with 2 mL of acetonitrile, placed on ice for about 10 min, and then centrifuged at 4° C. The supernatant was transferred to a clean tube. The protein pellets were extracted two more times with 4 mL of acetonitrile. The supernatants from precipitation and extraction of each sample were pooled, mixed, and evaporated at 22° C. under nitrogen in a TurboVap LV evaporator (Caliper Life Sciences, Hopkinton, Mass.) to about 1.0 mL. The concentrated extract was centrifuged, the supernatant volume measured and the extraction efficiency was determined by analyzing duplicate 10 μL aliquots for radioactivity concentrations.

COc1cc(N2CCN(C3CCN(C4=CC(=O)C(=O)c5cccnc54)CC3)CC2)c2ncccc2c1 [Metabolite M16, Desfluoro COMPOUND I quinone]
Species (in which the metabolite was characterized) [1]: R, M, H

COC1=CC(=O)c2ncccc2C1=O [Metabolite M1, 6-Methoxy-quinoline-5,8-dione]
Species (in which the metabolite was characterized) [1]: R, D, M, H

O=S(=O)(O)Oc1cc(N2CCN(C3CCN(c4ccc(F)c5cccnc45)CC3)CC2)c2ncccc2c1 [Metabolite M24, O-Desmethyl COMPOUND I sulfate]
Source ([2]; P, plasma, F, feces): P, F | percent of total fecal radioactivity ([2]; pooled 0-24 hr fecal sample): 4.6% | percent of total fecal radioactivity ([2]; pooled 24-48 hr fecal sample): 19.3%

Methoxyquinolinyl-piperazine [Metabolite P1]
Species (in which the metabolite was characterized) [1]: R, D, M, H

O=C1C=C(N2CCN(C3CCN(c4ccc(F)c5cccnc45)CC3)CC2)c2ncccc2C1=O [Metabolite M23, Desmethyl COMPOUND I quinone]
Species (in which the metabolite was characterized) [1]: R, D, M, H

[^14C]7-Ethoxycoumarin [reference compound]
turnover (positive control) ([3]; dog hepatocytes): 9% | turnover (positive control) ([3]; human hepatocytes): 6% | turnover (positive control) ([3]; rat hepatocytes): 10%

O=C(O)C1OC(Oc2cc(N3CCN(C4CCN(c5ccc(F)c6cccnc56)CC4)CC3)c3ncccc3c2)C(O)C(O)C1O (stereo not shown) [Metabolite M11, O-Desmethyl COMPOUND I glucuronide]
Chromatographic Distribution of Radioactivity in Pooled Plasma Samples ([4]; female rats, 1 hr): 56.8% | Chromatographic Distribution of Radioactivity in Pooled Plasma Samples ([4]; female rats, 3 hr): 48.2% | percent of total plasma radioactivity ([4]; male and female rats, range over time points, 5 mg/kg oral): 41.3-56.8% | Chromatographic Distribution of Radioactivity in Pooled Plasma Samples ([4]; male rats, 1 hr): 52.9% | Chromatographic Distribution of Radioactivity in Pooled Plasma Samples ([4]; male rats, 3 hr): 43.1% | Chromatographic Distribution of Radioactivity in Pooled Plasma Samples ([4]; male rats, 6 hr): 41.3%
